Assays:
Format in all cases: in vivo
[1] = test system: Diabrotica balteata (Corn Root Worm); assay: Example B1: Diabrotica balteata, maize sprouts sprayed, L2 larvae; details: 96 h, application rate of 200 ppm, 4 days after infestation, in comparison to untreated samples, read-out: effect in at least one of the two categories (mortality or growth inhibition)
Method in brief: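 Maize sprouts on agar sprayed with aqueous test solutions made from 10′000 ppm DMSO stocks, dried, then infested with 6–10 L2 larvae per well. Mortality and growth inhibition scored against untreated samples 4 days after infestation.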

[2] = test system: Euschistus heros (Neotropical Brown Stink Bug); assay: Example B2: Euschistus heros, soybean leaves sprayed, N2 nymphs; details: 120 h, application rate of 200 ppm, 5 days after infestation, in comparison to untreated samples, read-out: effect in at least one of the two categories (mortality or growth inhibition)
Description: Example B2: Euschistus heros (Neotropical Brown Stink Bug)
Soybean leaves on agar in 24-well microtiter plates were sprayed with aqueous test solutions prepared from 10′000 ppm DMSO stock solutions. After drying the leaves were infested with N2 nymphs. The samples were assessed for mortality and growth inhibition in comparison to untreated samples 5 days after infestation.
The following compounds gave an effect of at least 80% in at least one of the two categories (mortality or growth inhibition) at an application rate of 200 ppm: • P1, P2, P3, P7, P11, P12, P16, P17, P18, P22, P25, P29, P32, P33, P37, P38

[3] = test system: Plutella xylostella (Diamond Back Moth); assay: Example B5: Plutella xylostella, artificial diet in 24-well plates, eggs; details: 192 h, application rate of 200 ppm, 8 days after infestation, in comparison to untreated samples, read-out: effect in at least one of the two categories (mortality or growth inhibition)
Method in brief: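 Artificial diet in 24-well plates treated with aqueous test solutions made from 10′000 ppm DMSO stocks, dried, then infested with Plutella eggs. Mortality and growth inhibition scored against untreated samples 8 days after infestation.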

[4] = test system: Myzus persicae (Green Peach Aphid); assay: Example B6: Myzus persicae feeding/contact activity, sunflower leaf discs; details: foliar, 144 h, application rate of 200 ppm, aphid population of mixed ages, 6 days after infestation
Description: Example B6: Myzus persicae (Green Peach Aphid): Feeding/Contact Activity
Sunflower leaf discs were placed onto agar in a 24-well microtiter plate and sprayed with aqueous test solutions prepared from 10′000 ppm DMSO stock solutions. After drying, the leaf discs were infested with an aphid population of mixed ages. The samples were assessed for mortality 6 days after infestation.

[5] = test system: Myzus persicae (Green Peach Aphid); assay: Example B8: Myzus persicae intrinsic activity, sucrose solution under Parafilm, 24-well; details: 120 h, test rate of 12 ppm, 5 days after infestation
Method in brief: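 Compounds, diluted from 10′000 ppm DMSO stocks, were mixed with sucrose solution in wells sealed with stretched Parafilm. Aphid-infested pea seedlings were placed on the Parafilm, and the covered plate was turned upside down. Mortality was scored 5 days after infestation.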

[6] = test system: Spodoptera littoralis (Egyptian Cotton Leaf Worm); assay: Example B9: Spodoptera littoralis, cotton leaf discs sprayed, L1 larvae; details: foliar, 72 h, application rate of 200 ppm, five L1 larvae, 3 days after infestation, in comparison to untreated samples, read-out: control in at least one of the categories (mortality, anti-feedant effect, or growth inhibition)
Method in brief: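 Cotton leaf discs on agar sprayed with aqueous solutions made from 10′000 ppm DMSO stocks, dried, then infested with five L1 larvae. Mortality, anti-feeding and growth inhibition assessed against untreated samples 3 days after infestation; control counted when any category exceeded untreated.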

[7] = test system: Thrips tabaci (Onion thrips); assay: Example B12: Thrips tabaci feeding/contact activity, sunflower leaf discs; details: foliar, 144 h, application rate of 200 ppm, thrips population of mixed ages, 6 days after infestation
Description: Example B12: Thrips tabaci (Onion thrips): Feeding/Contact Activity
Sunflower leaf discs were placed on agar in 24-well microtiter plates and sprayed with aqueous test solutions prepared from 10′000 ppm DMSO stock solutions. After drying the leaf discs were infested with a thrips population of mixed ages. The samples were assessed for mortality 6 days after infestation.

[8] = test system: Myzus persicae (Green Peach Aphid); assay: Example B13: Myzus persicae, sucrose solution under Parafilm, 96-well; details: 120 h, application rate of 50 ppm, 5 days after infestation
Method in brief: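 Compounds from 10′000 ppm DMSO stocks mixed into sucrose solution, with aphids feeding through a Parafilm membrane in inverted plates. Mortality assessed 5 days after infestation.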

[9] = test system: Plutella xylostella (Diamondback Moth); assay: Example B14: Plutella xylostella, artificial diet in 96-well plates, eggs; details: 216 h, application rate of 500 ppm, 9 days after infestation
Method in brief: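 Artificial diet in microtiter wells treated with aqueous dilutions of DMSO stocks, dried, then infested with ~30 eggs per well; hatching L1 larvae feed on treated diet. Mortality scored 9 days after infestation.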

[10] = test system: Chilo suppressalis (Striped Rice Stemborer); assay: Example B4: Chilo suppressalis, artificial diet, L2 larvae; details: 144 h, application rate of 200 ppm, 6 days after infestation, in comparison to untreated samples, read-out: control in at least one of the categories (mortality, anti-feedant effect, or growth inhibition)
Method in brief: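 Artificial diet was treated with aqueous dilutions made from 10'000 ppm DMSO stocks, dried, then infested with L2 larvae at 6–8 per well. Mortality, antifeedant effect and growth inhibition were assessed against untreated samples 6 days after infestation.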

[11] = test system: Spodoptera littoralis (Egyptian Cotton Leaf Worm); assay: Example B10: Spodoptera littoralis, uptake by lettuce roots from agar, eggs; details: 144 h, test rate of 12.5 ppm, lettuce root uptake, 6 days after infestation, in comparison to untreated samples, read-out: effect in at least one of the three categories (mortality, anti-feeding, or growth inhibition)
Excerpt: Example B10: Spodoptera littoralis (Egyptian Cotton Leaf Worm)
Test compounds were applied by pipette from 10′000 ppm DMSO stock solutions into 24-well plates and mixed with agar. Lettuce seeds were placed onto the agar and the multi well plate was closed by another plate which contained also agar. After 7 days the compound was absorbed by the roots and the lettuce grew into the lid plate. The lettuce leaves were then cut off into the lid plate. Spodoptera eggs were pipetted through a plastic stencil onto a humid gel blotting paper and the lid plate was closed with it. The samples were assessed for mortality, anti-feedant effect and growth inhibition in comparison to untreated samples 6 days after infestation.
The following compounds gave an effect of at least 80% in at least one of the three categories (mortality, anti-feeding, or growth inhibition) at a test rate of 12.5 ppm: • P3, P15, P32

[12] = test system: Myzus persicae (Green Peach Aphid); assay: Example B7: Myzus persicae systemic activity, pea seedling roots in test solution; details: 144 h, test rate of 24 ppm, 6 days after placing seedlings into test solutions
Description: Example B7: Myzus persicae (Green Peach Aphid): Systemic Activity
Roots of pea seedlings infested with an aphid population of mixed ages were placed directly into aqueous test solutions prepared from 10′000 DMSO stock solutions. The samples were assessed for mortality 6 days after placing seedlings into test solutions.

CC(c1nc(N)nn1-c1ncccn1)N(C)C(=O)c1cc(C(F)(F)F)cc(C(F)(F)F)c1 (centres unmarked) [Compound P7, N-[1-(5-amino-2-pyrimidin-2-yl-1,2,4-triazol-3-yl)ethyl]-N-methyl-3,5-bis(trifluoromethyl)benzamide]
≥ 80%: percent effect (mortality or growth inhibition) at 200 ppm [1] | percent effect (mortality or growth inhibition) at 200 ppm [2] | percent effect (mortality or growth inhibition) at 200 ppm [3] | mortality at 200 ppm [4] | mortality at 12 ppm [5] | percent control (mortality, anti-feedant effect or growth inhibition) at 200 ppm [6] | mortality at 200 ppm [7] | mortality at 50 ppm [8] | mortality at 500 ppm [9]

CC(NC(=O)c1cc(Cl)cc(OC(F)(F)F)c1)c1nc(Br)nn1-c1ncccn1 (centres unmarked) [Compound P32, N-[1-(5-bromo-2-pyrimidin-2-yl-1,2,4-triazol-3-yl)ethyl]-3-chloro-5-(trifluoromethoxy)ben zamide]
≥ 80%: percent effect (mortality or growth inhibition) at 200 ppm [1] | percent effect (mortality or growth inhibition) at 200 ppm [2] | percent control (mortality, anti-feedant effect or growth inhibition) at 200 ppm [10] | percent effect (mortality or growth inhibition) at 200 ppm [3] | mortality at 12 ppm [5] | percent control (mortality, anti-feedant effect or growth inhibition) at 200 ppm [6] | percent effect (mortality, anti-feeding or growth inhibition) at 12.5 ppm [11] | mortality at 50 ppm [8] | mortality at 500 ppm [9]

CC(=O)Nc1nc(C(C)N(C)C(=O)c2cc(C(F)(F)F)cc(C(F)(F)F)c2)n(-c2ncccn2)n1 (centres unmarked) [Compound P17, N-[1-(5-acetamido-2-pyrimidin-2-yl-1,2,4-triazol-3-yl)ethyl]-N-methyl-3,5-bis(trifluoromethyl) benzamide]
≥ 80%: percent effect (mortality or growth inhibition) at 200 ppm [1] | percent effect (mortality or growth inhibition) at 200 ppm [2] | percent effect (mortality or growth inhibition) at 200 ppm [3] | mortality at 200 ppm [4] | mortality at 24 ppm [12] | mortality at 12 ppm [5] | percent control (mortality, anti-feedant effect or growth inhibition) at 200 ppm [6] | mortality at 200 ppm [7] | mortality at 50 ppm [8] | mortality at 500 ppm [9]

CNc1nc(C(C)N(C)C(=O)c2cc(C(F)(F)F)cc(C(F)(F)F)c2)n(-c2ncccn2)n1 (centres unmarked) [Compound P18, N-methyl-N-[1-[5-(methylamino)-2-pyrimidin-2-yl-1,2,4-triazol-3-yl]ethyl]-3,5-bis(trifluoromethyl) benzamide]
≥ 80%: percent effect (mortality or growth inhibition) at 200 ppm [1] | percent effect (mortality or growth inhibition) at 200 ppm [2] | percent effect (mortality or growth inhibition) at 200 ppm [3] | mortality at 200 ppm [4] | mortality at 12 ppm [5] | percent control (mortality, anti-feedant effect or growth inhibition) at 200 ppm [6] | mortality at 200 ppm [7] | mortality at 50 ppm [8] | mortality at 500 ppm [9]

CC(c1nc(Br)nn1-c1ncccn1)N(C)C(=O)c1cc(C(F)(F)F)cc(C(F)(F)F)c1 (centres unmarked) [Compound P3, N-[1-(5-bromo-2-pyrimidin-2-yl-1,2,4-triazol-3-yl)ethyl]-N-methyl-3,5-bis(trifluoromethyl)benzamide]
≥ 80%: percent effect (mortality or growth inhibition) at 200 ppm [1] | percent effect (mortality or growth inhibition) at 200 ppm [2] | percent control (mortality, anti-feedant effect or growth inhibition) at 200 ppm [10] | percent effect (mortality or growth inhibition) at 200 ppm [3] | mortality at 200 ppm [4] | mortality at 12 ppm [5] | percent control (mortality, anti-feedant effect or growth inhibition) at 200 ppm [6] | percent effect (mortality, anti-feeding or growth inhibition) at 12.5 ppm [11] | mortality at 50 ppm [8] | mortality at 500 ppm [9]

CC(c1nc(N=C(c2ccccc2)c2ccccc2)nn1-c1ncccn1)N(C)C(=O)c1cc(C(F)(F)F)cc(C(F)(F)F)c1 (centres unmarked) [Compound P22, N-[1-[5-(benzhydrylideneamino)-2-pyrimidin-2-yl-1,2,4-triazol-3-yl]ethyl]-N-methyl-3,5-bis(trifluoromethyl)benzamide]
≥ 80%: percent effect (mortality or growth inhibition) at 200 ppm [1] | percent effect (mortality or growth inhibition) at 200 ppm [2] | percent effect (mortality or growth inhibition) at 200 ppm [3] | mortality at 200 ppm [4] | mortality at 12 ppm [5] | percent control (mortality, anti-feedant effect or growth inhibition) at 200 ppm [6] | mortality at 200 ppm [7] | mortality at 50 ppm [8] | mortality at 500 ppm [9]

CC(c1nc(Cl)nn1-c1ncccn1)N(C)C(=O)c1cc(C(F)(F)F)cc(C(F)(F)F)c1 (centres unmarked) [Compound P15, N-[1-(5-chloro-2-pyrimidin-2-yl-1,2,4-triazol-3-yl)ethyl]-N-methyl-3,5-bis(trifluoromethyl)benzamide]
≥ 80%: percent effect (mortality or growth inhibition) at 200 ppm [1] | percent effect (mortality or growth inhibition) at 200 ppm [3] | percent control (mortality, anti-feedant effect or growth inhibition) at 200 ppm [6] | percent effect (mortality, anti-feeding or growth inhibition) at 12.5 ppm [11] | mortality at 50 ppm [8] | mortality at 500 ppm [9]

— patent publication US12152020B2, “Pesticidally active azole-amide compounds” (SYNGENTA PARTICIPATIONS AG, priority 2018, dated 2024)
